Patent US5284853A, “Angiotensin II receptor blocking 2,3,6 substituted quinazolinones” (American Cyanamid Company, priority 1993, dated 1994)

Biological target: T1, Angiotensin II Receptor (Bos taurus, UniProt P25104)
T1 construct: The brownish tissue forming the adrenal cortex is scraped off and finely minced with scissors before homogenization; tissue local slaughter house (Maxwell-Cohen); host or cells: beef adrenal cortex, microsomal membranes (100,000×g pellet)
T1 sequence (P25104 1-359): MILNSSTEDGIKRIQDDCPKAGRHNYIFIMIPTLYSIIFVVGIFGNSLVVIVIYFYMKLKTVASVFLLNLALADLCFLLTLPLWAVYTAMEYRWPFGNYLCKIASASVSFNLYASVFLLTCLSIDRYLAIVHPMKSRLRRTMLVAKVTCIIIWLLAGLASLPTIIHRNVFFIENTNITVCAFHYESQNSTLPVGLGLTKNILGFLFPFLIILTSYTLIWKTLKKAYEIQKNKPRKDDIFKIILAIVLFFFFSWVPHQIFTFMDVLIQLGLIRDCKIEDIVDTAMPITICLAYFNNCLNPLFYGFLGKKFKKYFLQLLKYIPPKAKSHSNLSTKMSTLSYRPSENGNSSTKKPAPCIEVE
Assay: Receptor binding assay: competition of [^125 I](Sar^1,Ile^8)AngII binding to beef adrenal cortex microsomal membranes
Conditions: 60 min, room temperature, pH 7.4

IC50: 170 nM
SMILES: CCCCc1nc2ccc(C3CC(c4ccc(C)o4)=NO3)cc2c(=O)n1Cc1ccc(-c2ccccc2-c2nnn[nH]2)cc1 (stereo not shown) [Example 19]
